The values below come from patent US9090629B2, “Cytotoxic agents comprising new ansamitocin derivatives” (ImmunoGen, Inc., priority 2010, dated 2015).

Each structure is given as a SMILES string. Read-outs that look alike come from different tables or passages of the source. Some results are limits rather than exact numbers.

One assay concerns COLO 205 cell line. Nature of the assay: in-vitro activity of ansamitocin derivatives. It is filed as cell-based, human. The note with it: 96 hour exposure; read-out: IC50 against COLO 205 cell line. The method, then: (§1) All reagents were purchased from the Aldrich Chemical Co., New Jersey, or other commercial sources. Maytansinol (11) was prepared as described previously (U.S. Pat. No. 6,333,410). Nuclear Magnetic Resonance (^1H NMR) spectra were acquired on a Bruker 400 MHz instrument and mass spectra were acquired on a Bruker Daltonics Esquire 3000 instrument using electrospray ionization. In vitro cytotoxicity assays are performed as previously described (see U.S. Pat. No. 7,276,497 and W. C. Widdison et al., J. Med. Chem., 2006, 49, 4392-4408).
(§2) The KB (ATCC CCl-17) cell line is of human epithelial origin. The SK-BR-3 (ATCC HTB-30) cell line was established from a human breast adenocarcinoma. The human colon tumor cell lines COLO 205 (ATCC CCL-222) and HT-29 (ATCC HTB 38), the human melanoma cell line A-375 (ATCC CRL 1619), the human Burkitts lymphoma cell line Ramos (ATCC CRL-1596) and the human myeloid leukemia cell line HL-60 (ATCC CCL-240) were all obtained from ATCC, Maryland. Cell lines were grown in Dulbecco's modified Eagles Medium (DMEM, Biowhittaker, Walkersville, Md.) with L-glutamine supplemented with 10% fetal bovine serum (Hyclone, Logan, Utah) and 50 μg/mL gentamycin sulfate (Life Technologies, Rockville, Md.). Cells were maintained at 36-37.5° C. in a humidified atmosphere that contained 6% CO2.

The test system of assay [1] is KB cells. Nature of the assay: clonogenic in vitro cytotoxicity assay. It is filed as cell-based, human. To be noted: 72 hours incubation. The procedure: as §2
(§3) The cytotoxicity study was performed using a clonogenic assay. The test cell lines (KB and SK-Br-3) were plated into 6-well culture dishes at a constant number of 1000 cells per well. Cells were incubated with varying concentrations (0 to 3 nM) of the various ansamitocins or maytansine for 72 hours. The medium was then aspirated from the plates and replaced with fresh medium. Cultures were allowed to grow, and form colonies, for a total of 7-10 days after plating. The cultures were then fixed and stained with 0.2% crystal violet in 10% formalin/PBS and colonies were counted. Plating efficiency of non-treated cells (medium alone) was determined by dividing the number of colonies counted by the number of cells plated. Surviving fraction of cells exposed to the drugs was determined by dividing the number of colonies in wells that were exposed to the drug by the number of colonies in the control wells.

The test system of assay [2] is KB cells. The note with it: literature report, cited from earlier work.
A further assay deals with SK-Br-3 cells. Nature of the assay: clonogenic in vitro cytotoxicity assay. It is filed as cell-based, human. The note with it: for IC50: read-out: IC50 towards SK-Br-3 cells. The procedure:
as §2, §3

The next assay concerns L1210 cells. To be noted: L1210 cells treated in vivo; untreated control 3.2 to 5.8%; cited from earlier work.
For assay [3], the system named is human nasopharyngeal carcinoma cells. To be noted: literature report; cited from earlier work.
Assay [4] concerns human acute lymphoblastic leukemia line CEM. To be noted: literature report; cited from earlier work.
The subject of assay [5] is L1210 mouse leukemia system. To be noted: literature report; cited from earlier work.
The next assay has as its system KB cell line. Put plainly: in-vitro activity of ansamitocin derivatives. It is filed as cell-based, human.
From the text: The in vitro cytotoxicity of ansamitocin derivatives of the present invention can be measured by methods previously disclosed (U.S. Pat. No. 7,276,497 and Widdison et al., J. Med. Chem., 49; 4392, 2006, both expressly incorporated herein by reference). For example, cell lines such as the human breast carcinoma line SK-Br-3, or the human epidermoid carcinoma cell line KB, can be used for the assessment of cytotoxicity of these new ansamitocin derivatives. Cells to be evaluated are exposed to the compounds for 72 hours and the surviving fractions of cells measured in direct assays by known methods. IC50 values are calculated from the results of the assays.
as §1
The KB (ATCC CCl-17) cell line is of human epithelial origin. The SK-BR-3 (ATCC HTB-30) cell line was established from a human breast adenocarcinoma. […]

Another assay deals with COLO 205-MDR cell line. Nature of the assay: in-vitro activity of ansamitocin derivatives. The note with it: 96 hour exposure; read-out: IC50 against COLO 205-MDR cell line. The assay is classed as cell-based, human. The method, then:
as §1

Broadly, the IC50 is the midpoint of a concentration-inhibition curve. For the compound `COc1cc2cc(c1Cl)N(C)C(=O)C[C@H](OC(=O)c1ccc(CSSC)cc1)[C@]1(C)O[C@H]1[C@H](C)[C@@H]1C[C@@](O)(NC(=O)O1)[C@H](OC)/C=C/C=C(\C)C2` [compound 59, 4-((methyldisulfanyl)methyl)benzoic acid ester of maytansinol], the concentration for half-maximal inhibition (IC50) in the assay on COLO 205 cell line is 0.53 nM.
Consider `CCC(=O)O[C@H]1CC(=O)N(C)c2cc(cc(OC)c2Cl)C/C(C)=C/C=C/[C@@H](OC)[C@@]2(O)C[C@H](OC(=O)N2)[C@@H](C)[C@@H]2O[C@@]12C` [ansamitocin bearing a C3 propionyl ester], for which, in the assay on KB cells [1], the “fold more potent than maytansine towards KB cells” value was determined as 1.3 fold. Besides, in the assay on KB cells [2] (KB cells), the “fold less potent than maytansine (Kupchan et al.)” value is on record as “about 34.4 fold”.
For the compound `COc1cc2cc(c1Cl)N(C)C(=O)C[C@H](OC(=O)CCCCCSSC)[C@]1(C)O[C@H]1[C@H](C)[C@@H]1C[C@@](O)(NC(=O)O1)[C@H](OC)/C=C/C=C(\C)C2` [compound 54, 6-(methyldithio)hexanoic acid ester of maytansinol], the IC50 in the assay with COLO 205 cell line came to 0.31 nM.
For `COc1cc2cc(c1Cl)N(C)C(=O)C[C@H](OC(=O)[C@H](C)N(C)C(C)=O)[C@]1(C)O[C@H]1[C@H](C)[C@@H]1C[C@@](O)(NC(=O)O1)[C@H](OC)/C=C/C=C(\C)C2` [maytansine, N-acetyl-N-methyl-L-alanyl ester of maytansinol], the IC50 in the assay with SK-Br-3 cells (Homo sapiens, SK-BR-3, 72 hours incubation) was determined as 0.034 nM. Moreover, the “IC50 towards cancer cells (Kupchan et al.)” value with KB cells [2] is 0.0000061 micrograms/mL. Also, in the assay on L1210 cells, the “cells accumulating in mitosis” value is on record as 67%. The “inhibition of in vitro growth of human nasopharyngeal carcinoma cells” value in [3] is “active inhibitor”. Besides, the “inhibitory concentration, CEM line” value in assay [4] is ≥ 10^−7 mg/ml. For the same compound, in [5], the “inhibitory activity in vivo” value was “significant inhibitory activity”.
`COc1cc2cc(c1Cl)N(C)C(=O)CC(OC(=O)CCCCC(=O)O)C1(C)OC1C(C)C1CC(O)(NC(=O)O1)C(OC)C=CC=C(C)C2` (stereo not drawn) [14b, Hexanedioic Acid Ester of Maytansinol]: the “fold reduction in activity compared to the TMS-protected precursor 14a” value with KB cell line (KB cell line) amounted to 15 fold.
For `COc1cc2cc(c1Cl)N(C)C(=O)C[C@H](OC(=O)CCCN(C)C)[C@]1(C)O[C@H]1[C@H](C)[C@@H]1C[C@@](O)(NC(=O)O1)[C@H](OC)/C=C/C=C(\C)C2` [compound 66, Dimethylamino Butyric Acid Ester of Maytansinol], the IC50 was 11 to 12 nM in the assay with KB cell line (96 hour exposure, read-out: IC50 against the KB cell line); 11 to 12 nM with COLO 205 cell line; greater than 20 nM in the assay on COLO 205-MDR cell line.
In the case of `CCCCC(=O)O[C@H]1CC(=O)N(C)c2cc(cc(OC)c2Cl)C/C(C)=C/C=C/[C@@H](OC)[C@@]2(O)C[C@H](OC(=O)N2)[C@@H](C)[C@@H]2O[C@@]12C` [ansamitocin P4′], in the assay on SK-Br-3 cells (72 hours incubation), the “fold more potent than maytansine towards SK-Br-3 cells” value is recorded as 17 fold and the half-maximal inhibitory concentration (IC50) came out at 0.002 nM.
Regarding `COc1cc2cc(c1Cl)N(C)C(=O)C[C@H](OC(=O)CCCCC(=O)OCC[Si](C)(C)C)[C@]1(C)O[C@H]1[C@H](C)[C@@H]1C[C@@](O)(NC(=O)O1)[C@H](OC)/C=C/C=C(\C)C2` [14a], the IC50 in the assay with COLO 205 cell line amounted to 0.4 nM; in the assay with COLO 205-MDR cell line, 4.8 nM.
